What was measured:
[1] = test system: testosterone-induced AGA mouse model; assay: In vivo hair regrowth efficacy; design: species or system C57BL/6J mice; settings: finasteride 1 mg/kg oral; for hair regrowth (coverage of the telogen area) / telogen-to-anagen conversion (telogen area transitioning): day 6; for hair regrowth (coverage of the telogen area) / telogen-to-anagen conversion (telogen area transitioning) / anagen area / hair regrowth / increase in hair follicle length compared to the untreated group / increase in hair weight compared to the untreated group: minoxidil 1% topical; for telogen-to-anagen conversion (telogen area transitioning): once daily
Procedure: On day 6, dorsal hair was removed from all mice. All mice were anesthetized using 3% isoflurane in 100% oxygen at a flow rate of 0.8 L/min, and the suppression of deep pedal reflexes was confirmed in the mice. Then, the desired dorsal region was shaved using electric clippers, followed by the application of rosin wax. After 2 min, the rosin wax was removed with the help of adhesive tape. The application of rosin wax was repeated one more time to completely remove the few remaining hairs.
Testosterone-treated mice were then randomly assigned to six groups (n = 6 per group). The first group served as the negative control and only received the vehicle.
Hair regrowth was visually monitored and photographed on days 0, 3, 6, 9, 12, and 15. Regrowth progression was quantitatively assessed using the software ImageJ (version 1.54p; National Institutes of Health, Bethesda, MD, USA) by measuring the areas corresponding to telogen-phase skin (pink), anagen transition zones (black), and fully covered hair regions. On day 15, the regrown dorsal hair was trimmed and weighed using an analytical balance to assess total hair mass. To evaluate hair follicle length, mice were first anesthetized using 3% isoflurane in 100% oxygen at a flow rate of 0.8 L/min to minimize movement and distress. The dorsal skin area was then cleaned with 70% ethanol to prevent contamination. Using sterile fine-tipped forceps, approximately 5–20 hairs were grasped close to the skin surface and swiftly plucked in the direction of hair growth to minimize follicular damage. Only hair shafts with intact follicular bulbs were selected for analysis. This procedure was repeated at three distinct dorsal sites per animal to obtain a representative sampling of hair regrowth. Finally, the lengths of selected hair follicles were measured microscopically.

[2] = test system: β-catenin; assay: Western blot of dorsal skin; format: in vivo, C57BL/6J mice; settings: 15 days post-treatment; minoxidil 1% topical, finasteride 1 mg/kg oral
Procedure: (§1) To assess protein expression levels in skin and liver tissues, samples were lysed using M-PER^TM Mammalian Protein Extraction Reagent (Thermo Fisher Scientific) supplemented with a 1× working concentration of Xpert Protease Inhibitor Cocktail Solution (GenDEPOT, Barker, TX, USA), which included 50 μM PMSF, 10 μM Pepstatin A, 20 μM Leupeptin, 100 μM Benzamidine, and 50 μM Bestatin. The lysates were incubated on ice for 30 min and centrifuged at 12,000× g for 10 min at 4 °C to remove debris. The supernatants were collected, and total protein concentrations were determined using the Pierce^TM BCA Protein Assay Kit (Thermo Fisher Scientific).
(§2) Equal amounts of protein (20–30 μg) were loaded onto 10% SDS–polyacrylamide gels and electrophoresed using a Bio-Rad Mini-PROTEAN Tetra System with the Tris–Glycine–SDS running buffer. A pre-stained molecular weight marker (Precision Plus Protein^TM Dual Color Standards, Bio-Rad) was used as a reference. Proteins were then transferred to PVDF membranes (Immobilon®-P, Millipore, Burlington, MA, USA) using the wet transfer method with the Tris–Glycine buffer containing 20% methanol at 0.2 A for 120 min at 4 °C.
(§3) Membranes were blocked with 5% skim milk in TBST buffer (20 mM Tris–HCl, 150 mM NaCl, 0.2% Tween 20, pH 7.4) for 1 h at room temperature and incubated overnight at 4 °C with one of the following primary antibodies diluted at 1:1000: anti-HSP90 (Santa Cruz Biotechnology, sc-13119, Dallas, TX, USA), anti-β-catenin (Cell Signaling Technology, #8480S, Danvers, MA, USA), anti-Lef-1 (Cell Signaling Technology, #2230S, Danvers, MA, USA), anti-Akr1c21 (Invitrogen, PA5-36572, Carlsbad, CA, USA), or anti-Dhrs9 (MyBioSource, MBS9125625, San Diego, CA, USA). Each antibody was applied to separate membranes to avoid cross-reactivity and ensure target specificity.
(§4) After primary antibody incubation, membranes were washed four times for 10 min each with TBST at 50 rpm on a shaker, followed by incubation with HRP-conjugated secondary antibodies (Thermo Fisher Scientific) diluted 1:3000 for 1 h at room temperature. The membranes were then washed three times for 5 min each with TBST under the same conditions. Protein bands were visualized using the enhanced chemiluminescence (ECL) reagent (Bio-Rad) and imaged using the iBright^TM CL1500 Imaging System (Thermo Fisher Scientific). Densitometric analysis was performed using the software ImageJ (NIH), and band intensities were normalized to HSP90 expression to ensure consistent protein quantification across all samples.

[3] = test system: Lef-1; assay: Western blot of dorsal skin; format: in vivo, C57BL/6J mice; settings: 15 days post-treatment; minoxidil 1% topical, finasteride 1 mg/kg oral; neither significant
Procedure: as §1, §2, §3, §4

[4] = test system: DHT; assay: Plasma DHT level (ELISA); format: in vivo, C57BL/6J mice; settings: AGA mice; minoxidil 1% topical, finasteride 1 mg/kg oral
Procedure: Blood samples were collected in heparinized tubes and centrifuged at 13,000× g for 5 min at 4 °C to isolate plasma. The plasma was stored at −80 °C until analysis for testosterone and DHT concentrations.
Plasma samples collected after the final dose of once-daily treatments were used to quantify serum testosterone and DHT levels using commercial ELISA kits: the Mouse Testosterone ELISA Kit and Mouse DHT ELISA Kit (LifeSpan BioSciences, Inc., Seattle, WA, USA). All assays were conducted following the manufacturer’s protocols.

[5] = test system: Akr1c21; assay: Western blot of liver tissue; format: in vivo, C57BL/6J mice; settings: 15 days post-treatment, minoxidil 1% topical, finasteride 1 mg/kg oral
Procedure: as §1, §2, §3, §4

[6] = test system: Dhrs9; assay: Western blot of liver tissue; format: in vivo, C57BL/6J mice; settings: 15 days post-treatment, minoxidil 1% topical, finasteride 1 mg/kg oral
Procedure: as §1, §2, §3, §4

[7] = test system: liver tissue; assay: Safety observation and liver H&E histology after 15-day treatment; format: in vivo, C57BL/6J mice; settings: mice, oral BSE or finasteride
[8] = test system: CCD-986sk dermal fibroblasts; assay: In vitro cell proliferation assay (WST-1)
[9] = test system: HaCaT keratinocytes; assay: In vitro cell proliferation assay (WST-1)
[10] = test system: HDP cells; assay: In vitro cell proliferation assay (WST-1); format: cell-based, human
[11] = test system: HDP cells; assay: In vitro scratch wound recovery assay; format: cell-based, human
Procedure: No. BA-045855; Sartorius AG, […], Germany). […] Sartorius AG), following the manufacturer's instructions. Detached cells were removed by washing twice with PBS (pH 7.4). […] All treatments were performed in triplicate, including a vehicle control. […] Wound closure was quantified using the Incucyte® Scratch Wound Analysis Software Module, which calculates relative wound density (%) by comparing cell density within the wound area to that of the surrounding monolayer, providing an objective measure of cell migration and proliferation over time.

Structure (SMILES) | hair regrowth (coverage of the telogen area) [1] [%] | telogen-to-anagen conversion (telogen area transitioning) [1] [%] | anagen area ([1]; day 9) [%] | hair regrowth ([1]; day 9) [%] | hair regrowth ([1]; day 15) [%] | increase in hair follicle length compared to the untreated group ([1]; day 15) [fold] | increase in hair weight compared to the untreated group ([1]; day 15) [%] | β-catenin expression in dorsal skin [2] | Lef-1 expression in dorsal skin [3] | reduction of plasma DHT compared to the untreated control [4] | hepatic Akr1c21 protein expression [5] | hepatic Dhrs9 protein expression [6] | other results
CC(C)(C)NC(=O)[C@H]1CC[C@H]2[C@@H]3CC[C@H]4NC(=O)C=C[C@]4(C)[C@H]3CC[C@]12C [finasteride] | 7.76 | 85.8 | 93.1 | 54.2 | 99.0 | 3.00 | 165 | significantly restored | no such trend | 2.38 fold | markedly upregulated | markedly upregulated | telogen area ([1]; day 9): 6.94%; physical abnormalities during treatment [7]: no physical abnormalities
Nc1cc(N2CCCCC2)nc(N)[n+]1[O-] [minoxidil] | 0.7 | 65.0 | 69.8 | 4.79 | 95.0 | 2.24 | 82.5 | significantly restored | positive trend | no detectable effect | no significant effect | no significant effect | concentration at which proliferation decreased (dose-dependent cytotoxicity) [8]: ≥ 10000 ng/mL; increase in cell proliferation ([8]; 0.5 µg/mL): 184%; increase in cell proliferation ([8]; 1 µg/mL): 173%; proliferation at lower concentrations ([8]; 0.01–0.1 µg/mL): significantly enhanced proliferation; concentration above which cytotoxic effects (decreased cell viability) were seen [9]: above 10 µg/mL; concentration above which proliferation markedly declined [10]: above 10 µg/mL; scratch wound closure ([11]; 0.1 µg/mL, 16 h): 68.8%; scratch wound closure ([11]; 0.1 µg/mL, 20 h): 77.7%; scratch wound closure ([11]; 0.1 µg/mL, 24 h): 94.7%; scratch wound closure ([11]; 1 µg/mL, 16 h): 49.2%; scratch wound closure ([11]; 25 µg/mL, 16 h): 29.2%
